The test system of data set [1] is IL-6 Production. The data set is described as follows: Inhibitory activity against IL-6 production (LPS-stimulated RAW 264.7 cells, ELISA). The format is cell-based. As to conditions: Mus musculus, RAW264.7, lipopolysaccharide, culturing for 20 hours. As to the method:
RAW 264.7 cells, which had been cultured until confluence on DMEM culture with 10% fetal bovine serum (FBS) added thereto, were diluted to 1×10^6 cells/ml with the same medium, and were then inoculated at 100 μl/well to a 96-well plate. A test sample which had been diluted with the same medium and lipopolysaccharide of 4 μg/ml in concentration was added at 50 μl/well, respectively. Subsequent to culturing for 20 hours, the cultures were collected.
The amount of IL-6 in each of the thus-obtained cultures of RAW 264.7 cells was measured by ELISA, and 5 the inhibitory activity against IL-6 production was determined with reference to a standard curve of IL-6.
For orientation: ELISA stands for enzyme-linked immunosorbent assay.

The subject of data set [2] is TNF-α Production. The data set can be described thus: Inhibitory activity against TNF-α production (LPS-stimulated RAW 264.7 cells, L-929 cytotoxicity readout). It counts as cell-based. The following applies: Mus musculus, RAW264.7, lipopolysaccharide, culturing for 20 hours. As to the method:
RAW 264.7 cells were cultured until confluence on DMEM culture with 10% fetal bovine serum (FBS), and were diluted to 1×10^6 cells/ml with the same medium and then inoculated at 100 μl/well to a 96-well plate. To the cells, a test sample which had been diluted with the same medium and lipopolysaccharide of 4 μg/ml was added at 50 μl/well, respectively. Subsequent to culturing for 20 hours, the cultures were collected.
Making use of cytotoxicity to L-929 cell strain, a TNF-α sensitive cell strain, the amount of TNF-α in each of the cultures was measured as will be described next. Described specifically, L-929 cells which had been cultured on MEM medium with 10% FBS added thereto were diluted to 2×10^5 cells/ml with the same medium, and were then inoculated at 100 μl/well to a 96-well plate. Subsequent to overnight incubation, standard TNF-α solutions, or 100-fold, 200-fold and 500-fold dilute solutions of the above-described culture of RAW 264.7 cells were added at 50 μl/well, and actinomycin D (4 μg/ml) was also added at 50 μl/well, followed by further culturing for 20 hours. Twenty hours later, each well was washed with PBS, viable cells were stained with crystal violet, and the inhibitory activity against TNF-α production was determined with reference to a standard curve of TNF-α.

The test system of data set [3] is Interleukin-1β (IL-1β) Production. The data set is described as follows: Inhibitory activity against interleukin-1β production (LPS-stimulated HL-60 cells, ELISA). The format is cell-based. As to conditions: Homo sapiens, 72 h, lipopolysaccharide 10 μg/ml, culturing for 3 days. As to the method:
HL-60 cells were cultured for 4 days until confluence on RPMI 1640 medium with 10% fetal bovine serum (FBS) added thereto. The HL-60 cells were centrifuged. The supernatant was discarded, and the cells were then suspended at 1×10^6 cells/ml on RPMI 1640 medium with 3% FBS, and lipopolysaccharide was added to give a final concentration of 10 μg/ml. The culture was inoculated at 1 ml/well to a 24-well plate. A test sample was added at 1 μl/well, followed by culturing for 3 days. Three days later, the amount of interleukin-1β in each of the cultures was measured by ELISA. Its IC50 value was determined by a comparison in yield with a control to which no test sample was added.

Data set [4] concerns collagen-induced arthritis models of mice. The data set is described as follows: Therapeutic effects for arthritis in collagen-induced arthritis models of mice. It counts as in vivo. The following applies: P.O.; for Percent inhibition to swelling: determined by quantitation of swelling; for Percent inhibition to arthritis development: determined depending on the existence or non-existence of swelling. As to the method: In accordance with the disclosure of Nature 283, 666-668, 1980, therapeutic effects for arthritis were evaluated by using collagen-induced arthritis models of mice.

The subject of data set [5] is dogs. The data set can be described thus: Maximum no-effect level, oral once a day for 2 weeks, dogs. It counts as in vivo. As to conditions: orally once a day for 2 weeks.
In data set [6] the test system is rats. The data set can be described thus: Maximum no-effect level, oral once a day for 2 weeks, rats. It counts as in vivo. As to conditions: orally once a day for 2 weeks.

These results are taken from US6348468B1, “Pyridazine compounds and compositions containing the same” (Kowa Co., Ltd., priority 1997, dated 2002).

The IC50 is the concentration that inhibits the measured activity by half. Regarding `COc1ccc(-c2cc(=O)n(CCCl)nc2-c2ccc(OC)cc2)cc1` [Comp. Comp'd 1], the IC50 in data set [1] is 65 µM; in data set [2], 10 µM; in data set [3] it was 29 µM.
In the case of `COc1ccc(-c2cc(=O)n(CCO)nc2-c2ccc(OC)cc2)cc1` [Comp. Comp'd 2], the IC50 in data set [1] came out at 44 µM; in data set [2] it was 26 µM; in data set [3] it was 46 µM.
For the molecule `CSc1ccc(-c2nn(Cc3ccccc3)c(=O)cc2-c2ccc(Cl)cc2)cc1` [Example 51, 2-benzyl-5-(4-chlorophenyl)-6-[4-(methylthio)phenyl]-2H-pyridazin-3-one], in data set [4] (1 mg/kg), the “Percent inhibition to swelling” value was 33.3% and the “Percent inhibition to arthritis development” value amounted to 40%. In data set [4] (3 mg/kg), the “Percent inhibition to swelling” value worked out at 77.4% and the “Percent inhibition to arthritis development” value worked out at 50%. Also, in data set [5], the “Maximum no-effect level (dog)” value turned out to be 30 mg/kg and the “toxicity at the dose level of Table 4 (in words)” value was “no toxicity was observed at all”. In data set [6], the “Maximum no-effect level (rat)” value amounted to 100 mg/kg and the “toxicity at the dose level of Table 4 (in words)” value is on record as “no toxicity was observed at all”. In data set [3], this molecule gave an IC50 of 0.29 µM.
`CCn1nc(-c2ccc(OC)cc2)c(-c2ccc(OC)cc2)cc1=O` [Example 163, 5,6-bis(4-methoxyphenyl)-2-ethyl-2H-pyridazin-3-one]: the IC50 in data set [1] stood at 0.4 µM; in data set [2], 1.2 µM; in data set [3], 0.61 µM.
